In article PMC4287394 (Clinical cancer research : an official journal of the …, 2014):

What was measured:
[1] = test system: phospho-AKT (Serine 473) in tumor tissue; assay: Phospho-AKT immunohistochemistry in paired tumor biopsies; format: in vivo, human
[2] = cited from earlier work
advanced solid tumors = assay: Antitumor activity; format: in vivo, human
[3] = Plasma pharmacokinetics in patients; format: in vivo, human; settings: for half-life / AUC(0-t) / Cmax / Tmax: human, plasma; for AUC(0-t): AUC 0-24, geometric mean; for Cmax: geometric mean; for Tmax: median
[4] = test system: IGROV1 ovarian cancer xenografts; settings: oral dose of 150mg/kg; IGROV1 ovarian cancer xenograft; cited from earlier work
PI3K signaling = assay: Multimodal pharmacodynamic assessment; format: in vivo, human; settings: regardless of molecular genetic status
[5] = test system: purified recombinant human PI3K p110δ; settings: read-out: IC50 p110δ; purified recombinant human PI3K isoforms; cited from earlier work
[6] = test system: phospho-AKT (Ser473) in platelet-rich plasma; assay: Phospho-AKT in platelet-rich plasma; format: in vivo, human
plasma insulin = settings: 330mg, cycle 1 day 1, 1 hour from baseline
Class I PI3K = settings: cited from earlier work
[7] = test system: U87MG glioblastoma xenografts; settings: oral dose of 150mg/kg; U87MG glioblastoma xenograft; cited from earlier work
[8] = test system: phospho-S6 (Ser235/236) in tumor tissue; assay: Phospho-S6 immunohistochemistry in paired tumor biopsies; format: in vivo, human
tumor 18F-FDG uptake = assay: Whole body 18F-FDG-PET; format: in vivo, human
[9] = test system: purified recombinant human PI3K p110α; settings: read-out: IC50 p110α; purified recombinant human PI3K isoforms; cited from earlier work
plasma glucose = settings: 330mg, cycle 1 day 1, 1 hour from baseline
mTOR = settings: cited from earlier work
[10] = 9 patients with PI3K pathway alterations
[11] = patient with BRAF V600E-mutated metastatic melanoma, 330mg once-daily 21/28
[12] = patient with cKIT exon 9 mutant gastrointestinal stromal tumor, 450mg once-daily
[13] = platinum-refractory ovarian cancer patient, 100mg once-daily 21/28
[14] = oral, 15 mg, Day 1, 15 mg QD, 4 patients
[15] = oral, 15 mg, Day 15, 15 mg QD, 4 patients
[16] = oral, 30 mg, Day 1, 30 mg QD, 3 patients
[17] = oral, 30 mg, Day 15, 30 mg QD, 3 patients
[18] = oral, 45 mg, Day 1, 45 mg QD, 4 patients
[19] = oral, 45 mg, Day 15, 45 mg QD, 4 patients
[20] = oral, 60 mg, Day 1, 60 mg QD, 4 patients
[21] = oral, 60 mg, Day 15, 60 mg QD, 3 patients
[22] = oral, 80 mg, Day 1, 80 mg QD, 3 patients
[23] = oral, 80 mg, Day 15, 80 mg QD, 3 patients
[24] = oral, 100 mg, Day 1, 100 mg QD, 5 patients
[25] = oral, 100 mg, Day 15, 100 mg QD, 3 patients
[26] = oral, 130 mg, Day 1, 130 mg QD, 3 patients
[27] = oral, 130 mg, Day 15, 130 mg QD, 3 patients
[28] = oral, 180 mg, Day 1, 180 mg QD, 3 patients
[29] = oral, 180 mg, Day 15, 180 mg QD, 3 patients
[30] = oral, 245 mg, Day 1, 245 mg QD, 3 patients
[31] = oral, 245 mg, Day 15, 245 mg QD, 3 patients
[32] = oral, 330 mg, Day 1, 330 mg QD, 17 patients
[33] = oral, 330 mg, Day 15, 330 mg QD, 17 patients
[34] = oral, 340 mg, Day 1, 340 mg QD, 7 patients
[35] = oral, 340 mg, Day 15, 340 mg QD, 6 patients
[36] = oral, 400 mg, Day 1, 400 mg QD, 1 patient
[37] = oral, 450 mg, Day 1, 450 mg QD, 3 patients
[38] = oral, 450 mg, Day 15, 450 mg QD, 3 patients

In the case of `CS(=O)(=O)N1CCN(Cc2cc3nc(-c4cccc5[nH]ncc45)nc(N4CCOCC4)c3s2)CC1` [pictilisib, 2-(1H-indazol-4-yl)-6-(4-methanesulfonyl-piperazin-1-ylmethyl)-4-morpholin-4-yl-t hieno[3,2-d]pyrimidine], the “Decrease in AKT phosphorylation in tumor biopsies” value ([1]; AUC >20uM.hr on day 15, 2 of 3 patients) is listed as 100%, the “Suppression of phosphorylated serine-473 AKT in tumor” value ([1]; doses associated with AUC >20uM.hr) is listed as > 90% and the “Central nervous system (CNS) penetration compared with BKM120” value [2] is listed as “lower”. The “Patients with RECIST-based response” value (advanced solid tumors; [10]) was “none”, the “Patients with response by GCIG-CA125 criteria” value (advanced solid tumors; [10]) was 1 and the “Response by RECIST” value (advanced solid tumors; [11]) was “partial response”. For the same compound, the Time on pictilisib (advanced solid tumors; [11]) was 9.5 months, the “Duration of stable disease” value (advanced solid tumors; [12]) was 7.5 months and the “Duration of radiological stable disease (RECIST)” value (advanced solid tumors; [13]) was 4 months. For the same compound, the “Serum CA125 after treatment” value (advanced solid tumors; platinum-refractory ovarian cancer patient, decrease from 1214 U/ml) was 400 U/ml, the “Increase in exposure (Cmax and AUC0-24) with dose” value ([3]; across the dose levels studied, 15-450mg) was “dose-proportional” and the half-life ([3]; oral) was 13.1 to 24.1 h. For the same compound, the half-life ([3]; oral, 15 mg) was 19.2 h, the AUC(0-t) [3, 14] was 0.978 µM·h and the AUC(0-t) [3, 15] was 1.35 µM·h. For the same compound, the Cmax [3, 14] was 112 nM, the Cmax [3, 15] was 116 nM and the Tmax [3, 14] was 2 h. The Tmax [3, 15] was 1.5 h, the half-life ([3]; oral, 30 mg) was 24.1 h and the AUC(0-t) [3, 16] was 1.18 µM·h. For the same compound, the AUC(0-t) [3, 17] was 1.9 µM·h, the Cmax [3, 16] was 144 nM and the Cmax [3, 17] was 179 nM. The Tmax [3, 16] was 2 h, the Tmax [3, 17] was 1 h and the half-life ([3]; oral, 45 mg) was 19.5 h. For the same compound, the AUC(0-t) [3, 18] was 2.77 µM·h, the AUC(0-t) [3, 19] was 4.09 µM·h and the Cmax [3, 18] was 362 nM. The Cmax [3, 19] was 436 nM, the Tmax [3, 18] was 2 h and the Tmax [3, 19] was 2 h. It also gave a half-life ([3]; oral, 60 mg) of 18.8 h, an AUC(0-t) [3, 20] of 2.02 µM·h and an AUC(0-t) [3, 21] of 2.78 µM·h. For the same compound, the Cmax [3, 20] was 242 nM, the Cmax [3, 21] was 270 nM and the Tmax [3, 20] was 2 h. The Tmax [3, 21] was 3 h, the half-life ([3]; oral, 80 mg) was 20.1 h and the AUC(0-t) [3, 22] was 5.45 µM·h. For the same compound, the AUC(0-t) [3, 23] was 9.86 µM·h, the Cmax [3, 22] was 632 nM and the Cmax [3, 23] was 779 nM. For the same compound, the Tmax [3, 22] was 2 h, the Tmax [3, 23] was 3 h and the half-life ([3]; oral, 100 mg) was 14.6 h. The AUC(0-t) [3, 24] was 3.19 µM·h, the AUC(0-t) [3, 25] was 5.64 µM·h and the Cmax [3, 24] was 362 nM. For the same compound, the Cmax [3, 25] was 751 nM, the Tmax [3, 24] was 2 h and the Tmax [3, 25] was 2 h. The half-life ([3]; oral, 130 mg) was 13.1 h, the AUC(0-t) [3, 26] was 2.99 µM·h and the AUC(0-t) [3, 27] was 5.03 µM·h. For the same compound, the Cmax [3, 26] was 359 nM, the Cmax [3, 27] was 457 nM and the Tmax [3, 26] was 2 h. It also gave a Tmax [3, 27] of 1 h, a half-life ([3]; oral, 180 mg) of 17.1 h and an AUC(0-t) [3, 28] of 5.95 µM·h. For the same compound, the AUC(0-t) [3, 29] was 8.25 µM·h, the Cmax [3, 28] was 611 nM and the Cmax [3, 29] was 783 nM. For the same compound, the Tmax [3, 28] was 2 h, the Tmax [3, 29] was 1 h and the half-life ([3]; oral, 245 mg) was 16.8 h. The AUC(0-t) [3, 30] was 8.18 µM·h, the AUC(0-t) [3, 31] was 11.3 µM·h and the Cmax [3, 30] was 994 nM. The Cmax [3, 31] was 1370 nM, the Tmax [3, 30] was 2 h and the Tmax [3, 31] was 1 h. It also gave a half-life ([3]; oral, 330 mg) of 15.7 h, an AUC(0-t) [3, 32] of 14.4 µM·h and an AUC(0-t) [3, 33] of 22.8 µM·h. For the same compound, the Cmax [3, 32] was 1520 nM, the Cmax [3, 33] was 2070 nM and the Tmax [3, 32] was 2 h. It also gave a Tmax [3, 33] of 3 h, a half-life ([3]; oral, 340 mg) of 20.9 h and an AUC(0-t) [3, 34] of 14.9 µM·h. It also gave an AUC(0-t) [3, 35] of 16.5 µM·h, a Cmax [3, 34] of 1680 nM and a Cmax [3, 35] of 1950 nM. The Tmax [3, 34] was 2 h, the Tmax [3, 35] was 1 h and the half-life ([3]; oral, 400 mg) was 14.8 h. For the same compound, the AUC(0-t) [3, 36] was 15.6 µM·h, the Cmax [3, 36] was 1650 nM and the Tmax [3, 36] was 2 h. It also gave a half-life ([3]; oral, 450 mg) of 15 h, an AUC(0-t) [3, 37] of 13.9 µM·h and an AUC(0-t) [3, 38] of 23.5 µM·h. For the same compound, the Cmax [3, 37] was 1950 nM, the Cmax [3, 38] was 2640 nM and the Tmax [3, 37] was 2 h. For the same compound, the Tmax [3, 38] was 2 h, the Tmax ([3]; po, fasting, all doses) was 2 h and the growth inhibition [4] was 80%. For the same compound, the “Dose levels with on-target pharmacodynamic activity” value (PI3K signaling) was ≥ 100 mg, the IC50 [5] was 3 nM and the “Inhibition of phospho-AKT level in platelet rich plasma” value ([6]; 1 to 3 hours post-dose at the RP2D (330mg)) was “up to 90%”. For the same compound, the “Suppression of phosphorylated serine-473 AKT in platelet rich plasma” value ([6]; 3 hours post-dose at the MTD) was > 90%, the “Phospho-AKT in platelet rich plasma, sustained effect, % of baseline” value ([6]; 24 hours post-dose at the RP2D (330mg)) was 50% and the “Mean fold-change (post- over pre-treatment) in plasma insulin” value (plasma insulin) was 3.58 (95%CI: 2.33-5.49). The “Observed in vitro potency compared with BKM120” value (Class I PI3K) was “higher”, the growth inhibition [7] was 98% and the “Reduction in tumor phospho-S6 expression” value [8, 12] was 75%. For the same compound, the “Reduction in tumor phospho-S6 expression” value [8, 13] was 56%, the “Patients with metabolic partial response by EORTC-PET criteria” value (tumor 18F-FDG uptake; 32 evaluable patients) was 22% and the “Patients with metabolic partial response by EORTC-PET criteria (>25% reduction in mean SUVmax)” value (tumor 18F-FDG uptake; 32 evaluable patients) was 7 of 32 and Seven of 32. The “Overall median change in SUVmax” value (tumor 18F-FDG uptake; all evaluable patients) was −13%, the “Range of change in SUVmax” value (tumor 18F-FDG uptake; all evaluable patients) was −47 to 22% and the “Dose levels showing reduction from baseline of 18F-FDG-tracer uptake” value (tumor 18F-FDG uptake; in vivo) was ≥ 45 mg. The “Reduction in SUVmax on 18F-FDG-PET” value (tumor 18F-FDG uptake; [12]) was 47%, the “Reduction in mean SUVmax in subcapsular liver metastases” value (tumor 18F-FDG uptake; [13]) was 30% and the IC50 [9] was 3 nM. For the same compound, the “Mean fold-change (post- over pre-treatment) in plasma glucose” value (plasma glucose) was 1.18 (95%CI: 1.10-1.26) and the “fold less activity against mTOR compared to p110α” value (mTOR) was 193 fold.
